Source: patent publication US20240228572A1 (i2o Therapeutics, Inc., priority 2020, published 2024)
*1 amine or outer side, *2 acyl side, *3 side chain or, on linkers, in order; H or OH if unused. Where a SMILES comes first, the peptide text is derived from it. Side-chain parts run from the residue outwards. [ ]: non-standard residue; d: D form. The star is where a group is joined. C20 diacid = O=C(O)CCCCCCCCCCCCCCCCCCC(=O)*; γGlu = O=C(O)[C@H](CCC(=O)[*:2])N[*:1]; AEEA = NCCOCCOCC(=O)O; Aib = CC(C)(N)C(=O)O

Columns and labels:
[1] = system: cynomolgus monkey GCGR; assay: cAMP accumulation assay, CHO-K1 cells expressing cynomolgus monkey GCGR; assay type: cell-based; conditions: cyno glucagon receptor
Source text: In the presence of the non-specific cAMP/cGMP phosphodiesterase inhibitor, 3-isobutyl-1-methylxanthine (IBMX), accumulating cAMP can be measured in vitro using common detection methods. Thus, it is possible to estimate an in vitro potency (pEC50) for peptides activating each of these receptors using fit dose-response curves for cAMP accumulation.
A cDNA fragment encoding the full-length open reading frame of the cynomolgus monkey GLP-1R (Genebank accession #XM_028847603 was cloned into pcDNA3.1+ for expression in CHO-K1 cells. A cDNA fragment encoding the full-length open reading frame of the human GCGR (Genebank accession #NM_000160 was cloned into pcDNA3.1+ for expression in CHO-K1 cells. A cDNA fragment encoding the full-length open reading frame of the rat GCGR (Genebank accession #NM_12091 was cloned into pcDNA3.1+ for expression in CHO-K1 cells. A cDNA fragment encoding the full-length open reading frame of the cynomolgus monkey GCGR (Genebank accession #XM_005585255 was cloned into pcDNA3.1+ for expression in CHO-K1 cells. […]
Peptides were serially diluted 4-fold in assay buffer to final concentrations ranging from 1×10^−9 M to 9.5×10^−16 M. Two assay controls consisting of 50 mcM forskolin (cAMP system maximum) or assay buffer only (cAMP system minimum) were also prepared. […] Plates were read on an Envision fluorescent plate reader (PerkinElmer). […]

[2] = Metabolic stability in monkey kidney brush border membranes (kBBM); assay type: in vitro ADME; conditions: pH 7.4, read-out: kBBM t½
Method: Brush border membranes from rat and human kidney tissue were prepared via centrifugation and stored at −70° C. Thawed stocks of rat or human kBBM were diluted to the appropriate concentration in 25 mM HEPES buffer (pH 7.4) containing 1% casein and aliquoted into a 96-well plate. The kBBM solutions were pre-warmed for 10 minutes at 37° C. Reactions were initiated by the addition of test peptide (1 mcM final concentration) also dissolved in 25 mM HEPES buffer (pH 7.4) containing 1% casein. The final concentration of kBBM in each incubation was 50 mcg protein/mL. Reactions were maintained at 37° C. in a shaking water bath. At 0, 0.25, 0.5, 1.0, 2.0, and 4.0 h post-initiation, 30 mcL of the reaction mixture was removed and placed into a 96-well plate containing 120 mcL of ice-cold methanol containing 2.5% formic acid. Quenched samples were centrifuged at 2178×g for 10 min and then a portion of the supernatants were transferred to a clean 96-well plate and diluted 1:1 with water.

[3] = Stability in human subcutaneous (SC) tissue homogenates; assay type: in vitro ADME; conditions: subcutaneous (SC) tissue homogenate, 10 mcM peptide, 1.0 mg protein/mL, 37° C., pH 7.4, read-out: (H)SC tissue stability t½ (converted)
Method: In vitro incubations in subcutaneous (SC) tissue homogenates were used to characterize the ability of peptides to resist pre-systemic degradation by proteases and peptidases after SC administration. In vivo nonclinical studies have shown that peptidase activity in the SC space can limit the bioavailability of a peptide after SC administration. Peptides with high SC bioavailability are stable in this assay, while peptides with low SC bioavailability are unstable in this assay.
Human SC tissue was homogenized in cold 25 mM HEPES buffer (pH 7.4, 10-fold volume based on sample weight), and then filtered through a double layer of cheesecloth. The filtrates were aliquoted, flash frozen on a methanol/dry ice bath and stored at −80° C. The protein concentration of each pooled batch was determined using the BCA protein assay. Thawed stocks of human SC tissue homogenates were diluted to 1.0 mg protein/mL in 25 mM HEPES buffer (pH 7.4) and aliquoted into a 96-well plate. The diluted SC homogenates were pre-warmed for 10 minutes at 37° C. Reactions were initiated by the addition of test peptide (10 mcM final concentration) also dissolved in 25 mM HEPES buffer (pH 7.4). Reactions were maintained at 37° C. in a shaking water bath. […] Samples were analyzed by UPLC-MS/MS.

[4] = molecular target: T1, human GLP-1 receptor (GLP-1R) (Homo sapiens, UniProt P43220); assay: cAMP accumulation assay, CHO-K1 cells stably expressing human GLP-1R; assay type: cell-based
T1 construct: expressed in transfected cells
T1 sequence (P43220 24-463): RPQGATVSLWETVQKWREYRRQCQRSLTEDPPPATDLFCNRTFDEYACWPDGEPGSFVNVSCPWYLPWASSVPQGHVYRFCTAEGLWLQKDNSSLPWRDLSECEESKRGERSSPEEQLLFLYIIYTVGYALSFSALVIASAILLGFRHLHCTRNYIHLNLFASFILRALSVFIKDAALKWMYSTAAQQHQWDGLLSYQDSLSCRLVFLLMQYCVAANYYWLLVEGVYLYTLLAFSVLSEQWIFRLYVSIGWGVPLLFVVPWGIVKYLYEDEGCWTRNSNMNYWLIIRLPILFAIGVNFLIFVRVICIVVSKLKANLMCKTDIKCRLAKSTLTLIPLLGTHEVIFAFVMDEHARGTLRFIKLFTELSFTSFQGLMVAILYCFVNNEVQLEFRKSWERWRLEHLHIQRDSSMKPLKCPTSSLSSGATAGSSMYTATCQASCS

With `CC(C)C[C@H](NC(=O)[C@H](Cc1ccc(O)cc1)NC(=O)[C@H](CCCCN)NC(=O)[C@H](CO)NC(=O)[C@H](Cc1ccc(O)cc1)NC(=O)[C@H](CC(=O)O)NC(=O)[C@H](CO)NC(=O)[C@@H](NC(=O)[C@H](Cc1ccccc1)NC(=O)[C@@H](NC(=O)CNC(=O)[C@H](Cc1c[nH]cn1)NC(=O)[C@H](CO)NC(=O)[C@@H](N)Cc1ccc(O)cc1)[C@@H](C)O)[C@@H](C)O)C(=O)N[C@@H](CC(=O)O)C(=O)NC(C)(C)C(=O)N[C@@H](CCCCN)C(=O)N[C@@H](Cc1ccc(O)cc1)C(=O)N[C@@H](C)C(=O)N[C@@H](CCC(N)=O)C(=O)N[C@@H](CCCCNC(=O)CC[C@H](NC(=O)CC[C@H](NC(=O)COCCOCCNC(=O)CCCCCCCCCCCCCCCCCCC(=O)O)C(=O)O)C(=O)O)C(=O)N[C@@H](Cc1ccccc1)C(=O)N[C@H](C(=O)NC(C)(C)C(=O)N[C@@H](Cc1c[nH]c2ccccc12)C(=O)N[C@@H](CC(C)C)C(=O)N[C@@H](CCC(=O)O)C(=O)N[C@@H](CC(=O)O)C(=O)N[C@@H](CCC(=O)O)C(=O)N1CCC[C@H]1C(=O)N[C@@H](CO)C(=O)N[C@@H](CO)C(=O)NCC(=O)N[C@@H](C)C(=O)N1CCC[C@H]1C(=O)N1CCC[C@H]1C(=O)N1CCC[C@H]1C(=O)N[C@@H](CO)C(=O)O)C(C)C` [Compound A6] (H-YSHGTFTSDYSKYLD[Aib]KYAQK([γGlu-γGlu-AEEA-C20 diacid])FV[Aib]WLEDEPSSGAPPPS-OH; N-terminus assumed) the “Activity (as EC50 values) cGCGR” value [1] was 9.77, the half-life at 1 mcM [2] was greater than 12 h and the half-life at 10 mcM [3] was 10.6 h. The EC50 [4] was greater than 0.1 µM and the “Activity (as EC50 values) hGLP1R” value ([4]; human GLP-1 receptor, Table 11) was less than 7.
